Test systems include MDA-MB-231 breast; SNB-19 CNS; MOLT-4 leukemia; CAKI-1 renal; LOX IMVI melanoma; A498 renal; ACHN renal; HCC-2998 colon; SK-MEL-2 melanoma; SR leukemia.
Common to all, as to assay: NCI tumour cell line growth inhibition, 48 h

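Interpolation was linear, between the two tested concentrations surrounding the appropriate level; five concentrations were tested over 48 hours in 96-well plates. The concentration for 50% growth inhibition is given as GI50. TGI marks complete inhibition of growth.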 Bounds are passed on as bounds.

On to `CN1C(Cl)=NS(=O)(=O)c2ccccc21`, for which the TGI in the test with MDA-MB-231 breast was above 100 µM; with SNB-19 CNS, above 100 µM; with MOLT-4 leukemia, above 100 µM; with CAKI-1 renal, 36.6 µM; in the test with LOX IMVI melanoma, above 100 µM; in the test on A498 renal, above 100 µM. Besides, the TGI in the test with ACHN renal, in the test with HCC-2998 colon, in the test on SK-MEL-2 melanoma and with SR leukemia was above 100 µM throughout.

`CN(C)CCN1C(=O)c2cccc3cccc(c23)C1=O`: the GI50 in the test with MDA-MB-231 breast was above 25 µM; in the test on SNB-19 CNS, 22.3 µM; in the test with MOLT-4 leukemia, 6.3 µM; in the test with CAKI-1 renal it was 5.13 µM; in the test with LOX IMVI melanoma, 10.6 µM; in the test on A498 renal it was 13.4 µM. In addition, the GI50 in the test with ACHN renal is 8.29 µM; in the test on HCC-2998 colon, above 25 µM; in the test on SK-MEL-2 melanoma, above 25 µM; in the test with SR leukemia, 5.18 µM. Also, the TGI was above 25 µM in the test on MDA-MB-231 breast; above 25 µM with SNB-19 CNS; 16.3 µM in the test on MOLT-4 leukemia; 17.5 µM with CAKI-1 renal; above 25 µM in the test on LOX IMVI melanoma; above 25 µM in the test with A498 renal. Moreover, the TGI was above 25 µM with ACHN renal, above 25 µM in the test with HCC-2998 colon, above 25 µM in the test with SK-MEL-2 melanoma and 18.3 µM in the test on SR leukemia.

In the case of `O=C1NCCS(=O)(=O)/C1=C\C=C\c1cccc(C(F)(F)F)c1`, the GI50 is 4.21 µM in the test with MDA-MB-231 breast; 2.62 µM in the test on SNB-19 CNS; 2.05 µM in the test with MOLT-4 leukemia; 2.22 µM with CAKI-1 renal; 1.23 µM with LOX IMVI melanoma; 2.51 µM in the test with A498 renal. Further, the GI50 in the test with ACHN renal was 1.99 µM; with HCC-2998 colon, 1.93 µM; in the test on SK-MEL-2 melanoma, 2.62 µM; with SR leukemia it was 0.539 µM. Moreover, the TGI with MDA-MB-231 breast came out at 15.9 µM; in the test with SNB-19 CNS, 10.7 µM; in the test on MOLT-4 leukemia, 9.54 µM; with CAKI-1 renal, 10.2 µM; with LOX IMVI melanoma, 2.61 µM; in the test on A498 renal, 5.31 µM. Further, the TGI was 4.52 µM with ACHN renal, 3.72 µM with HCC-2998 colon, 9.77 µM in the test with SK-MEL-2 melanoma and above 100 µM in the test with SR leukemia.

For the compound `CC1=C(/C=C/C(C)=C/C=C/C(C)=C/CO)C(C)(C)CCC1`, the TGI was 78.5 µM in the test with MDA-MB-231 breast; 69.4 µM in the test with SNB-19 CNS; 44.4 µM with MOLT-4 leukemia; above 100 µM in the test on CAKI-1 renal; 43.5 µM with LOX IMVI melanoma; 42.6 µM with A498 renal. The TGI in the test on ACHN renal was above 100 µM; in the test on HCC-2998 colon it was 36.2 µM; with SK-MEL-2 melanoma it was 44 µM; with SR leukemia, 38.3 µM.

As for `Cn1c(=O)c(Oc2ccc(F)cc2F)cc2cnc(NCCS(C)(=O)=O)nc21`, the GI50 with MDA-MB-231 breast, in the test on SNB-19 CNS, in the test on MOLT-4 leukemia, with CAKI-1 renal, with LOX IMVI melanoma and with A498 renal was above 25 µM in each case. For the same compound, the GI50 with ACHN renal, with HCC-2998 colon, in the test on SK-MEL-2 melanoma and with SR leukemia was above 25 µM each time. Moreover, the TGI in the test on MDA-MB-231 breast, in the test on SNB-19 CNS, with MOLT-4 leukemia, in the test on CAKI-1 renal, in the test on LOX IMVI melanoma and in the test with A498 renal was above 25 µM in each case. Further, the TGI with ACHN renal, in the test with HCC-2998 colon, with SK-MEL-2 melanoma and in the test with SR leukemia was above 25 µM throughout.

For the compound `CCN(CC)CCSCCCNc1c2ccc(Cl)cc2nc2ccc(OC)cc12`, the GI50 in the test with MDA-MB-231 breast was 1.01 µM; with SNB-19 CNS, 1.25 µM; in the test on MOLT-4 leukemia it was 0.435 µM; in the test with CAKI-1 renal, 1.23 µM; in the test on LOX IMVI melanoma, 0.337 µM; with A498 renal, 0.654 µM. The GI50 in the test on ACHN renal was 0.719 µM; with HCC-2998 colon, 1.02 µM; in the test on SK-MEL-2 melanoma, 2.06 µM; in the test on SR leukemia it was 0.976 µM. Also, the TGI in the test on MDA-MB-231 breast stood at 3 µM; with SNB-19 CNS, 4.88 µM; in the test with MOLT-4 leukemia, 3.94 µM; in the test with CAKI-1 renal it was 3.45 µM; with LOX IMVI melanoma, 1.34 µM; in the test on A498 renal, 2.16 µM. Besides, the TGI in the test on ACHN renal was 3.05 µM; in the test on HCC-2998 colon, 2.42 µM; in the test with SK-MEL-2 melanoma, 3.87 µM; with SR leukemia, 4.84 µM.

As for `COc1ccc(-c2nn(-c3cccc(NC(=O)c4ccc(N5CCOCC5)c(C(F)(F)F)c4)c3)cc2-c2ccncc2)cc1Cl`, the GI50 in the test on MDA-MB-231 breast is 2.29 µM; in the test on SNB-19 CNS it was 46.8 µM; in the test with MOLT-4 leukemia, 4.5 µM; in the test with CAKI-1 renal, 3.64 µM; with LOX IMVI melanoma, 9.98 µM; in the test with A498 renal, 2.44 µM. The GI50 in the test on ACHN renal is 10.2 µM; in the test on HCC-2998 colon it was 14.1 µM; with SK-MEL-2 melanoma, 16.3 µM; in the test with SR leukemia, 1.62 µM. Moreover, the TGI was above 50 µM with MDA-MB-231 breast; above 50 µM in the test on SNB-19 CNS; above 50 µM in the test on MOLT-4 leukemia; above 50 µM in the test on CAKI-1 renal; above 50 µM in the test with LOX IMVI melanoma; 26.4 µM with A498 renal. Moreover, the TGI in the test with ACHN renal, in the test on HCC-2998 colon, with SK-MEL-2 melanoma and with SR leukemia was above 50 µM each time.

For `CNC(=O)OCC1C2=C(C(=O)C(C)=C(N)C2=O)N2CC3C(N3C)C12OC` (centres undefined), the TGI in the test with MDA-MB-231 breast was above 100 µM; in the test with SNB-19 CNS, above 100 µM; in the test with MOLT-4 leukemia, 36.9 µM; with CAKI-1 renal, 32.7 µM; in the test with LOX IMVI melanoma, 33.9 µM; with A498 renal, 34.2 µM. For the same compound, the TGI in the test with ACHN renal was 26.7 µM; in the test with HCC-2998 colon, 24.8 µM; in the test with SK-MEL-2 melanoma, 55.7 µM; in the test with SR leukemia, above 100 µM.

As to `CCc1nc(N)nc(N)c1-c1ccc(Cl)c(N=CN(C)C)c1`, the TGI in the test on MDA-MB-231 breast was above 100 µM; in the test on SNB-19 CNS, above 89.3 µM; with MOLT-4 leukemia, above 100 µM; in the test on CAKI-1 renal, above 100 µM; in the test on LOX IMVI melanoma, above 100 µM; with A498 renal it was above 100 µM. In addition, the TGI is above 100 µM with ACHN renal, above 100 µM with HCC-2998 colon, above 100 µM in the test with SK-MEL-2 melanoma and above 83.4 µM with SR leukemia.

Consider `O=C1OC(c2ccccc2)=N/C1=C\c1cccc(F)c1`, for which the TGI in the test on MDA-MB-231 breast was above 100 µM; in the test on SNB-19 CNS, above 100 µM; in the test with MOLT-4 leukemia, 67.9 µM; in the test on CAKI-1 renal, above 100 µM; in the test on LOX IMVI melanoma, 45.6 µM; in the test with A498 renal, above 100 µM. The TGI was above 100 µM with ACHN renal, above 100 µM in the test with HCC-2998 colon, above 100 µM in the test with SK-MEL-2 melanoma and 56.4 µM in the test with SR leukemia.

As to `COc1cc(/C=C/C(=O)c2cccnc2Nc2ccc(F)cc2)cc(OC)c1OC`, the GI50 was 3.07 µM with MDA-MB-231 breast; 3.73 µM in the test on SNB-19 CNS; 2.75 µM with MOLT-4 leukemia; 3.68 µM in the test on CAKI-1 renal; 1.69 µM in the test with LOX IMVI melanoma; 2.18 µM with A498 renal. The GI50 is 2.84 µM in the test on ACHN renal, 1.78 µM with HCC-2998 colon, 2.52 µM in the test with SK-MEL-2 melanoma and 1.93 µM in the test on SR leukemia. In addition, the TGI in the test with MDA-MB-231 breast was determined as 11.8 µM; in the test on SNB-19 CNS, 33.2 µM; with MOLT-4 leukemia it was 9.52 µM; with CAKI-1 renal, 39.5 µM; in the test on LOX IMVI melanoma it was 3.59 µM; in the test on A498 renal, 8.28 µM. Moreover, the TGI worked out at 7.2 µM in the test with ACHN renal, 3.45 µM with HCC-2998 colon, 5.26 µM with SK-MEL-2 melanoma and 8.36 µM in the test with SR leukemia.

With `CCn1c2ccccc2c2cc(C(O)c3cccc4ncccc34)ccc21` (centres undefined), the GI50 was 0.128 µM in the test with MDA-MB-231 breast; 0.0437 µM in the test on SNB-19 CNS; 0.0633 µM in the test on MOLT-4 leukemia; 0.0425 µM in the test on CAKI-1 renal; 0.0631 µM in the test with LOX IMVI melanoma; 0.0251 µM in the test with A498 renal. The GI50 in the test with ACHN renal is 0.0715 µM; in the test on HCC-2998 colon, 0.257 µM; in the test on SK-MEL-2 melanoma it was 0.0543 µM; in the test on SR leukemia, 0.0248 µM. Further, the TGI with MDA-MB-231 breast is 11.4 µM; in the test on SNB-19 CNS, 34.7 µM; in the test on MOLT-4 leukemia it was above 100 µM; with CAKI-1 renal, above 100 µM; in the test on LOX IMVI melanoma, 13.4 µM; in the test with A498 renal, 0.267 µM. The TGI with ACHN renal amounted to 41.9 µM; in the test on HCC-2998 colon, 15.7 µM; in the test on SK-MEL-2 melanoma, 39.4 µM.

For the compound `CC(C)CCN[C@@H]1CCc2cc(O)c(N3CC(=O)NS3(=O)=O)c(F)c2C1`, the GI50 in the test on MDA-MB-231 breast is above 100 µM; in the test on SNB-19 CNS it was above 100 µM; in the test with MOLT-4 leukemia it was above 100 µM; in the test on CAKI-1 renal, 3.41 µM; in the test with LOX IMVI melanoma, 52.7 µM; with A498 renal, above 100 µM. Further, the GI50 in the test on ACHN renal was above 100 µM; with HCC-2998 colon, above 100 µM; with SK-MEL-2 melanoma, above 100 µM; in the test on SR leukemia, 1.78 µM. The TGI with MDA-MB-231 breast, in the test on SNB-19 CNS, in the test on MOLT-4 leukemia, in the test with CAKI-1 renal, in the test with LOX IMVI melanoma and with A498 renal was above 100 µM in each case. Besides, the TGI with ACHN renal, in the test with HCC-2998 colon, in the test with SK-MEL-2 melanoma and with SR leukemia was above 100 µM throughout.

With `Cc1cc2c(cc1N)C(C)C1(CCC(=O)N2Cc2ccccc2)OCCO1` (centres undefined), the TGI with MDA-MB-231 breast, with SNB-19 CNS, in the test on MOLT-4 leukemia, in the test on CAKI-1 renal, with LOX IMVI melanoma and in the test on A498 renal was above 100 µM throughout. The TGI with ACHN renal, in the test with HCC-2998 colon, in the test with SK-MEL-2 melanoma and in the test on SR leukemia was above 100 µM throughout.

The values above are taken from PubChem BioAssay (NCI).
